# Patent US20040063730A1, “Pharmacuetical formulation comprising puyrazolo[4,-3-d]pyrimidines and antithrombotics, calcium antagonists, or prostaglandins or prostaglandin derivatives” (priority 2000, published 2004)
smiles,measurement,value
"CCCc1nn(C)c2c(NCc3ccc(OC)c(Cl)c3)nc(CCC(=O)O)nc12 [Example 2, 3-[7-(3-chloro-4-methoxybenzylamino)-1-methyl-3-propyl-1H-pyrazolo-[4,3-d]pyrimidin-5-yl]propionic acid]",melting point,178 °C
